Experimental findings from patent US9012497B2, “Cyclohexyl carbamate compounds as active anti-cellulite ingredients” (Symrise AG, priority 2010, dated 2015) are described below.

The subject of assay [1] is 3T3-L1 cells. Put plainly: Lipolysis assay, in vitro on 3T3-L1 cells, free glycerol release. Format: cell-based. The note with it: Mus musculus; differentiated 3T3-L1 cells, about 20 hours of incubation; mean values from at least 2 independent tests; read-out: Stimulation of lipolysis EC50. The protocol:
3T3-L1 cells (mouse embryonic fibroblast-like adipocyte cell line) are seeded in a 48-well plate with collagen I-coating in a concentration of 3×10^4 cells/well. The cultivation and differentiation of the cells takes place analogously to the details in Example 2 (adipogenesis assay).
Various concentrations of the test substances are applied to the cells in DMEM, with bovine serum albumen added. After about 20 hours of incubation, the quantification of free glycerol in the supernatant of the cells takes place, which is released by the cells after hydrolysis of triglycerides in the cells and is a measure of the lipolysis of the cells. The quantification of the free glycerol is carried out based on an enzymatic method with a free glycerol reagent.
(§1) The stimulation of the lipolysis in the presence of test substances is calculated according to the following equation:
[formula] wherein A test substance=absorption of the wells with test substance and with cells A test substance without cells=absorption of the wells with test substance without cells (absorption control) A control=absorption of the wells without test substance, but with cells A control without cells=absorption of the wells without test substance and without cells
The EC50 is calculated from the lipolysis stimulation [%] in a series of dilutions of tested samples. This is the concentration at which the lipolysis is 50% stimulated.

Another assay deals with T1, lipoprotein lipase (LPL) (Mus musculus, UniProt P11152).
T1 construct: endogenous in cells; host or cells: differentiated 3T3-L1 cells (mouse); heparin-released supernatant
T1 sequence (P11152 28-474): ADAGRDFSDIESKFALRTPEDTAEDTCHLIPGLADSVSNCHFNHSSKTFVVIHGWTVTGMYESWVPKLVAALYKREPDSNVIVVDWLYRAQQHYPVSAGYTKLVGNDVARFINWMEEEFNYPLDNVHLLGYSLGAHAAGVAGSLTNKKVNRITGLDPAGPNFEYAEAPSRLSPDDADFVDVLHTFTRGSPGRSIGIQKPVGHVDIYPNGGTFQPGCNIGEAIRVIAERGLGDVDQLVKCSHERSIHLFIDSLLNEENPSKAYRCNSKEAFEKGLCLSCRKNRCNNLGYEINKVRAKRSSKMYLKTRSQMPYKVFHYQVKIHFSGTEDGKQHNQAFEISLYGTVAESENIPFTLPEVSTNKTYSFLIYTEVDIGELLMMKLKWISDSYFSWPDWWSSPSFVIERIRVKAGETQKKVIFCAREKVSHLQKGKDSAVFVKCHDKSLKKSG
Put plainly: Inhibition of LPL (lipogenesis assay), MUF oleate hydrolysis. Format: biochemical. The conditions noted are these: LPL obtained from differentiated 3T3-L1 cells; mean values of at least 2 independent tests. The text has this: (§2) Lipogenesis is perceived as the storage of triglycerides in adipocytes. The inhibition of this storage can take place by means of the inhibition of the activity of extracellular lipoprotein lipase (LPL) in that the hydrolysis of extracellular triglycerides and therefore the absorption of free fatty acids by adipocytes are reduced. As a preliminary test, the inhibition of pancreatic lipase (PL) is investigated.
The results of the inhibition of the PL are used as a preliminary test and are confirmed on LPL. To obtain LPL, 3T3-L1 cells (mouse embryonic fibroblast-like adipocyte cell line) are seeded in a 6-well plate with collagen I-coating in a concentration of 3×10^5 cells/well. The cultivation and differentiation of the cells takes place analogously to the details in Example 2 (adipogenesis assay). During the differentiation LPL is increasingly expressed. The LPL is present in a membrane-bound state and is released by one hour incubation with heparin solution at 2-8° C. to the supernatant of the cells.
The LPL thus obtained, in the presence of test substances in different use concentrations, has methylumbelliferyl oleate (MUF oleate) added as the substrate. Fluorescent methylumbelliferyl (MUF) is produced by hydrolysis of the MUF oleate by LPL and is quantified. The inhibition of the hydrolysis of the MUF oleate is a measure of the inhibition of the activity of the LPL and therefore the lipogenesis.
[formula] wherein MUF test substance=MUF concentration of the wells with test substance and with LPL MUF control=MUF concentration of the wells without test substance, but with LPL MUF control without LPL=MUF concentration of the wells without test substance and without LPL
The IC50 is calculated from the inhibition of the LPL [%] in a series of dilutions of tested samples. This is the concentration at which the activity of the LPL and therefore the lipogenesis is 50% inhibited.

In another assay the test system is 3T3 cells. In words: ATP assay, inhibition of proliferation. It is filed as cell-based. The note with it: Mus musculus, NIH3T3, 48 h, non-cytotoxic dilutions, mean values of at least 2 independent tests. The procedure:
3T3 cells (mouse […] fibroblasts) were seeded in 96-well plates. After 24 h cultivation at 37° C. and 5% CO2 in DMEM (Dulbecco's Modified Eagle Medium), cells were treated with test substances for another 48 h. […] ATP content in the cells is measured by
The inhibition of proliferation was calculated by:
[formula] wherein RLU test substance=relative luminescent units of the wells with test substance and with cells RLU control=relative luminescent units of the wells without test substance, but with cells RLU control without cells=relative luminescent units of the wells without test substance and without cells
The IC50 is calculated from the proliferation inhibition [%] in a series of non-cytotoxic dilutions of tested samples. This is the concentration at which the proliferation is 50% inhibited.

The target of another assay is T2, pancreatic lipase (PL) (Sus scrofa, UniProt P00591).
T2 construct: purchased Sigma-Aldrich
T2 sequence (P00591 1-450): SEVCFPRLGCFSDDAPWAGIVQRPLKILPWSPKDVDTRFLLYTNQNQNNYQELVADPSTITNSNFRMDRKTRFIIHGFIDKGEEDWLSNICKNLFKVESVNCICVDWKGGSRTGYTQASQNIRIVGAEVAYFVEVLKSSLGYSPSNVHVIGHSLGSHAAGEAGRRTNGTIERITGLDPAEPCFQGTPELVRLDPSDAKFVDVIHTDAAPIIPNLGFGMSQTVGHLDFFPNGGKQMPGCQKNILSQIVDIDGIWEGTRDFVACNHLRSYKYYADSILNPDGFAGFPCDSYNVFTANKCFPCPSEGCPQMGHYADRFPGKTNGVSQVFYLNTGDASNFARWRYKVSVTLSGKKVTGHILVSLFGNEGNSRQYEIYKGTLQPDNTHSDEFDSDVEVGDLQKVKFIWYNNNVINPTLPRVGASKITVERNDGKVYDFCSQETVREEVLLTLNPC
Put plainly: Inhibition of PL, MUF oleate hydrolysis. Format: biochemical. The note with it: mean values of at least 2 independent tests.
Source text: as §2
PL (Sigma-Aldrich), in the presence of test substances in different use concentrations has methylumbelliferyl oleate (MUF oleate) added as a substrate. Fluorescent methylumelliferon (MUF), is produced by hydrolysis of the MUF oleate by PL and is quantified. The inhibition of the hydrolysis of the MUF oleate is a measure of the inhibition of activity of the PL.
[formula] wherein MUF test substance=MUF concentration of the wells with test substance and with PL MUF control=MUF concentration of the wells without test substance, but with PL MUF control without PL=MUF concentration of the wells without test substance and without PL
The IC50 is calculated from the inhibition of the PL [%] in a series of dilutions of tested samples. This is the concentration, at which the activity of the PL is 50% inhibited.

In assay [2] the test system is 3T3-L1 cells. In words: Adipogenesis assay (in vitro), Nile Red lipid staining. Format: cell-based. The conditions noted are these: Mus musculus, mean values of at least 2 independent tests, read-out: Adipogenesis inhibition IC50. The protocol: 3T3-L1 cells (mouse embryonic fibroblast-like adipocyte cell line) are seeded in a 48-well plate with collagen I-coating in a concentration of 3×10^4 cells/well. After 72 h cultivation at 37° C. and 5% CO2 in DMEM (Dulbecco's Modified Eagle Medium), enriched with 10% calf serum, various concentrations of the test substances in DMEM, enriched with 10% foetal calf serum and to which are added 1 μg/ml insulin, 0.25 μM dexamethasone and 0.5 mM IBMX (3-isobutyl-1-methylxanthine), are added and incubated for a further 48 h. A media change takes place, in that DMEM, enriched with 10% foetal calf serum and with 1 μg/ml insulin added, are applied. After renewed cultivation for 48 h, a further media change takes place, in which DMEM, enriched with 10% foetal calf serum, is applied.
After a further incubation for 72 h, the intracellularly stored lipids are quantified as a measure for the differentiation of the cells by measuring the fluorescence after staining of the lipids with the fluorescent dye Nile Red.
The inhibition of the adipogenesis in the presence of the test substances is calculated according to the following equation:
[formula] wherein RFU test substance=relative fluorescent units of the wells with test substance and with cells RFU control=relative fluorescent units of the wells without test substance, but with cells RFU control without cells=relative fluorescent units of the wells without test substance and without cells The IC50 is calculated from the adipogenesis inhibition [%] in a series of dilutions of tested samples. This is the concentration at which the adipogenesis is 50% inhibited.

In assay [3] the test system is ex vivo pig skin model including subcutis fat layer. In words: Lipolysis assay, ex vivo pig skin model, free glycerol release. The conditions noted are these: conc. 0.1% in cosmetic test preparation, topical on ex vivo pig skin, 24 hours, versus placebo. Format: cell-based.
Source text: Full thickness pig skin patches (pig skin model including subcutis fat layer as described in EP 1 939 279) are excised from the dorsal part of young pig slaughtered for meat. The ex vivo pig skin models have a size of 7×3 mm (diameter×height). They are placed on a titanium grid dipped in culture medium. On top of the skin samples formulations are applied. In parallel to a cosmetic test preparation containing one or more compounds of formula (I) a placebo preparation without any compound of formula (I) is applied as reference (blank).
After 24 hours of incubation, the quantification of free glycerol in the medium surrounding the pig skin models was performed. The glycerol is released by the cells after hydrolysis of triglycerides in the cells of the adipose tissue and is a measure of the lipolysis of the pig skin models. The quantification of the free glycerol is carried out based on an enzymatic method with a free glycerol reagent.
Cosmetic Test Preparation:
Phases A and B are heated to 70° C. separately. Pemulen TR1 as well as Ultrez-21 are dispersed in phase B when heated to 70° C. Phase B/C is added to phase A by mixing with an Ultra Turrax, followed by emulsifying. Phase D is slowly added to phase A/B/C using a paddle mixer and a pH 5.5-6 is adjusted. The formulation is cooled down while mixing with a paddle mixer. Phase E is prepared by dissolving one or more compounds of formula (I) in Hydrolite-5. Subsequently, phase E is added to the mixture of phase A-D.
as §1
[formula] wherein A test substance=absorption of the wells with medium of ex vivo skin models, on which the formulation containing the test substance was applied A placebo=absorption of the wells with medium of ex vivo skin models, on which the placebo without test substance was applied

Molecules are shown by their SMILES.

For `CCCCNC(=O)OC1CC(C)CC(C)(C)C1` (centres unmarked) [BIO1616, Butyl-carbamic acid 3,3,5-trimethyl-cyclohexyl ester], in the assay on 3T3-L1 cells [1], the concentration giving a half-maximal response (EC50) was 450 µM. Moreover, the IC50 at lipoprotein lipase (LPL) turned out to be 1020 µM; with 3T3 cells, 220 µM; against pancreatic lipase (PL), 900 µM; with 3T3-L1 cells [2] it was 120 µM.

On to `CCc1ccc(NC(=O)OC2CC(C)CC(C)C2)cc1` (centres unmarked) [BIO1823, (4-Ethyl-phenyl)-carbamic acid 3,5-dimethyl-cyclohexyl ester], for which the EC50 in the assay with 3T3-L1 cells [1] is 460 µM. In assay [3], the Stimulation of lipolysis was 28%. In addition, the IC50 in the assay with 3T3 cells is 1390 µM; in the assay with 3T3-L1 cells [2], 62 µM.

Regarding `CCC(C)NC(=O)OC1CC(C)CC(C)(C)C1` (centres unmarked) [BIO1844, sec-Butyl-carbamic acid 3,3,5-trimethyl-cyclohexyl ester], the EC50 with 3T3-L1 cells [1] was 210 µM. Besides, the IC50 against lipoprotein lipase (LPL) worked out at 720 µM; in the assay on 3T3 cells, 478 µM; at pancreatic lipase (PL) it was 350 µM; in the assay on 3T3-L1 cells [2], 89 µM.
